The record followed here is patent publication US20040234509A1, “Replacing liver cells with bone marrow-derived cells for treating disease and expressing therapeutic genes” (priority 2002, published 2004).

The structures appear in SMILES notation.

The subject of this data set is Kupffer cells. In words: Kupffer cell replacement in mice: gadolinium chloride followed by GFP bone marrow stem cells. The class given is in vivo, C57BL/6 mice. How it is done:
Bone marrow derived from C57BL/6-TgN(ACTbEGFP)10sb mice was injected into the tail vein of recipient C57BL/6 mice. Recipient mice were separated into two groups. One group received saline injection the other received gadolinium chloride (20-60 mg/kg i.v.: ICN Biomedicals, Aurora, Ohio) 24 hours before they received the bone marrow cells obtained from C57BL/6-TgN (ACTbEGFP) 10sb mice. The amount of bone marrow cells administered varied between 2×10^6 to 100×10^6 cells/animal. Mice were sacrificed 2 weeks after the stem cells were injected and livers were removed, fixed and prepared for fluorescent microscopy.
C57BL/6 mice were injected with 60 mg/Kg of gadolinium chloride 24 hours before injecting stem cells intravenously.

[1] abbreviates: 60 mg/Kg gadolinium chloride 24 hours before stem cells i.v., two weeks after injection.

As to `[Cl][Gd]([Cl])[Cl]` [gadolinium chloride], under setting [1], the “GFP labeled Kupffer cells in liver, 10×10^6 stem cells vs 2×10^6 stem cells” value is on record as “many more GFP labeled Kupffer cells” and the “number of GFP-labeled Kupffer cells, 100×10^6 stem cells vs 10×10^6 stem cells” value was “did not significantly increase the number of GFP-labeled Kupffer cells”. For the same compound, the “survival / evidence of toxicity” value (C57BL/6 mice, gadolinium chloride 20-60 mg/kg i.v. plus 2×10^6 to 100×10^6 bone marrow cells/animal, 2 weeks) is “All mice survived and none showed evidence of any toxicity”. Further, the “GFP-fluorescent Kupffer cells in liver (fluorescent microscopy)” value (gadolinium chloride 20-60 mg/kg i.v. 24 hours before bone marrow cells from TgN(ACTbEGFP)1Osb mice, livers 2 weeks after stem cells, vs saline control) was “contained many GFP-fluorescent Kupffer cells”.
